In PMC8433497, “DNA-encoded chemistry technology yields expedient access to SARS-CoV-2 M^pro inhibitors” (Proceedings of the National Academy of Sciences of the …, 2021):
“Also recorded” adds a separate entry of the source. Like-named read-outs stand apart in the source and are kept apart here.

How the values were obtained:
[1] = Plasma stability assay, mouse plasma; assay type: in vitro ADME; details: 10 µM, 37 °C, after 2-h incubation
Protocol: (§1) Compound CDD-1713 and CDD-1976 were incubated in human and mouse plasma, respectively, at a concentration of 10 µM in duplicate (n = 2) at 37 °C. At time points of 0, 30, 60, and 120 min, 15 µL of sample were taken out and the reactions terminated by adding 75 µL of ice-cold methanol. The reaction mixtures were then vortexed for 30 s and centrifuged at rcf 15,000 for 15 min. Following centrifugation, 3 μL of the supernatant was analyzed using UHPLC-Q Exactive Orbitrap MS. The percentage of test compound remaining at the individual time points relative to the 0-min sample was then determined.

renin = biological target: T1, renin (Homo sapiens, UniProt P00797); experiment: Renin assay; assay type: biochemical; details: best off-target inhibition observed; read-out: estimated Kiapp, renin
T1 construct: purchased BPS Bioscience 80211
T1 sequence (P00797 67-406): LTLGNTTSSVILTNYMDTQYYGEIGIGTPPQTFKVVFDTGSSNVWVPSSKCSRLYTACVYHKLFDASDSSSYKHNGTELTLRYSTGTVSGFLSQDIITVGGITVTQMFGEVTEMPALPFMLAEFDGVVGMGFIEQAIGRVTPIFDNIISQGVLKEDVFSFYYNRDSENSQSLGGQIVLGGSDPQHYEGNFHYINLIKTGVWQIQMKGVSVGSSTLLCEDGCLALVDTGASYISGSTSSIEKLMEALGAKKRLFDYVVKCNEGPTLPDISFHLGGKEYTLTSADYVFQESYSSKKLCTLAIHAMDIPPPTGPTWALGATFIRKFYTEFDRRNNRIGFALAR
Protocol: Renin assay: A kit from BPS Bioscience (80211) was used with adjustments to the manufacturer’s protocol as follows. The reaction was run at RT in black 96 half-area plates in a total reaction volume of 50 μL containing 0.01% Tween-20. Instead of measuring endpoints at 30 min the increase in fluorescence (Ex 490 nm, Em 520 nm) per second (RFU/s) was obtained from linear progress curves over 10 min. Fractional activities were calculated from reactions with no inhibitors. Aliskiren was used as a positive control.

HepG2 cells [2] = experiment: HepG2 cell uptake assay; assay type: in vitro ADME; details: 10 μM, 2 h, 37 °C
Protocol: (§2) The HepG2 cells maintained in DMEM (containing 1 g/L glucose, 10% fetal bovine serum [FBS], and 1% penicillin/streptomycin) were seeded in a 12-well plate (a final density of 5 × 10^5 per well) for cell uptake assay and 96-well plate for cytotoxicity assay (a final density of 5 × 10^4 per well). The plate was incubated at 37 °C for 24 h.
The cells in 12-well plate were treated with CDD-1713 or CDD-1976 (final concentration: 10 μM). The plate was incubated at 37 °C for another 2 h. The medium in the plate was decanted and the cells were rinsed with 1 mL of 1× DPBS three times, then 0.5 mL of 0.25% trypsin was added to each well and incubated for 3.5 min (at 37 °C). One milliliter of complete medium was added to each well to quench the reaction. After spinning at 350 × g for 5 min, the cell pellet was reconstituted in MeOH/H2O (vol/vol 1/1) and CDD-1713 or CDD-1976 was extracted from 100 μL of the resulting mixture with 100 μL of ice-cold methanol. The mixtures were centrifuged at rcf 15,000 for 15 min. Three microliters of the supernatant was analyzed by UHPLC-Q Exactive Orbitrap MS (Thermo Fisher Scientific) equipped with a 50-mm × 4.6-mm column (XDB C-18; Agilent Technologies). The column temperature was set at 40 °C. Ultrapure nitrogen was applied as the sheath (45 arbitrary units), auxiliary (10 arbitrary units), sweep (1.0 arbitrary unit), and the collision gas. […]

HepG2 cells [3] = experiment: HepG2 cytotoxicity assay (XTT); assay type: cell-based; details: 100 μM, 24 h
Protocol: as §2
(§3) The cells in 96-well plate were treated by CDD-1713 or CDD-1976 at the final concentrations of 0, 10, 20, 50, or 100 μM (n = 3 replicates per concentration level per drug). After 24-h incubation at 37 °C, the medium in the plate was decanted and 100 μL of Dulbecco’s modified Eagle’s medium (DMEM) (without phenol red) was added into each well. The cell variability was measured using XTT method. The absorbance at 475 nm was read with a Tecan M1000 pro machine, with a reference wavelength of 660 nm. The reading was normalized by vehicle with final 0.5% dimethyl sulfoxide (DMSO) for each drug.

[4] = HepG2 cytotoxicity assay (XTT); assay type: cell-based; details: human, 100 µM group, XTT, normalized to DMSO, read-out: HepG2 cell viability
Protocol: as §2, §3

SARS-CoV-2 M^pro-His6 = SARS-CoV-2 M^pro-His6 (Severe acute respiratory syndrome coronavirus 2, UniProt P0DTD1); experiment: M^pro-His6 enzyme inhibition assay, fluorescent peptide reporter; assay type: biochemical
[5] = test system: SARS-CoV-2 main protease (M^pro); experiment: Protein thermal shift stability assay (thermofluor); assay type: binding; details: 1.5 μM protease, various compound concentrations, SYPRO Orange
Protocol: The dye SYPRO Orange (Thermo Fisher Scientific) was used to perform the protein thermal shift assay. The assay was set up on a 384-well Roche plate where the SARS-CoV-2 main protease at a concentration of 1.5 μM was incubated with the test compound at various concentrations and SYPRO Orange dye at 5× in a 10 μL reaction. The melting curve experiment and data analysis were run on a Roche Lightcycler 480 real-time PCR instrument.

[6] = Metabolic stability in human liver microsomes; assay type: in vitro ADME
Protocol: (§4) The samples were collected at specific time points, 0, 30, and 60 min, in duplicate. The reactions were terminated by adding an equivalent volume of ice-cold methanol and vortexed. […] Three microliters […] of the supernatant was analyzed by UHPLC-Q Exactive Orbitrap MS (Thermo Fisher Scientific) equipped with 50-mm × 4.6-mm column (XDB C-18; Agilent Technologies). The column temperature was maintained at 40 °C. The flow rate was at 0.3 mL/min with a 30% mobile phase (acetonitrile containing 0.1% formic acid). Q Exactive MS was operated in positive mode with electrospray ionization. Ultrapure nitrogen was applied as the sheath (45 arbitrary units), auxiliary (10 arbitrary units), sweep (1.0 arbitrary unit), and the collision gas. […] Mass Spectrometry (MS) data were acquired from 80 to 1,200 Da in profile mode.

[7] = test system: SARS-CoV-2 (USA_WA1/2020 isolate); experiment: RTCA assay for in vitro inhibition of SARS-CoV-2 replication in VERO E6 cells; assay type: cell-based; details: live SARS-CoV-2, 75 h
[8] = Plasma stability assay, human plasma; assay type: in vitro ADME; details: 10 µM, 37 °C, after 2-h incubation
Protocol: as §1

[9] = Metabolic stability in mouse liver microsomes; assay type: in vitro ADME
Protocol: as §4

Which results are given for `COc1cc(-c2cccc3[nH]ncc23)cc(C=O)c1OCC(=O)N(C)C` [CDD-1713]?
compound remained in mouse plasma [1]: 80%; Ki (renin): 53000 nM; cell permeability in uptake assay of HepG2 cells (HepG2 cells [2]): moderate cell permeability; cytotoxicity in HepG2 cells (in words) (HepG2 cells [3]): no obvious cytotoxicity; viability at 24 h, 100 µM [4]: > 80%; Ki (SARS-CoV-2 M^pro-His6; 25 nM enzyme, 15 µM fluorescent peptide, Morrison equation, inactive = less than 90% inhibition at 25 µM, read-out: Ki against M^pro (Fig. 2; Fig. 2B M^pro-His-tag)): 45 ± 3 nM; Ki (SARS-CoV-2 M^pro-His6; Table S1, 25 nM enzyme, 15 µM fluorescent peptide, Morrison equation, SE from triplicates, read-out: Mpro-His Ki): 45 ± 3 nM; Ki (SARS-CoV-2 M^pro-His6; read-out: Ki against M^pro (Fig. 2; Fig. 2B M^pro-His-tag)): 45 nM; stabilization of M^pro (temperature shift) [5]: stabilized; also recorded: concentration-dependent stabilization; metabolic stability in human liver microsomes (in words) [6]: metabolically labile; half-life at 2 μM ([6]; 0.5 mg protein/ml, 2.0 uM compound, 1.0 mM NADPH, read-out: HLM t1/2): 15.3 min; effect on SARS-CoV-2 induced cell death (in words) [7]: reduced cell death in a dose-dependent manner; IC50, SARS-CoV-2 induced cell death (normalized cell index, RTCA) ([7]; duplicates): 5190 nM; compound remained in human plasma [8]: 80%; metabolic stability in mouse liver microsomes (in words) [9]: metabolically labile; half-life at 2 μM ([9]; 0.5 mg protein/ml, 2.0 uM compound, 1.0 mM NADPH, read-out: MLM t1/2): 8.4 min
